29 compounds from BindingDB's records for doi:10.7270/Q2N014XN (Srmlsc, 2007) can be followed below.

Some results are limits rather than exact numbers.

The target in this assay is T1, Diphosphomevalonate decarboxylase (Streptococcus pneumoniae serotype 2 (strain D39 / NCTC 7466), UniProt A0A0H2ZN59).
T1 sequence (A0A0H2ZN59 whole entry): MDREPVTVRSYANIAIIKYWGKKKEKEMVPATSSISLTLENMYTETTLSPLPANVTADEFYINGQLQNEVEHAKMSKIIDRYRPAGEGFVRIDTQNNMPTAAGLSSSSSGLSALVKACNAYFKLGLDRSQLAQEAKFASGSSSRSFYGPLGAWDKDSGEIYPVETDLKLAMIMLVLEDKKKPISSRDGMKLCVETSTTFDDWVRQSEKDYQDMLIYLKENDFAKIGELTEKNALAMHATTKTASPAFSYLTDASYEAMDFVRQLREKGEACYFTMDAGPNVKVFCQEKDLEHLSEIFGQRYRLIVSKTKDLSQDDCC
Nature of the assay: diphosphomevalonate decarboxylase inhibition dose curves – biochemical, PK/LDH-coupled NADH fluorescence, hexokinase coupling counter-screen, dose response (AID 550). (In general: The purpose of a counterscreen is to sort out artefacts and off-target activity.)

Setting [1] is: inactive by the depositor's call.

What is called IC50 is the concentration that inhibits the measured activity by half. In turn, `Cn1/c(=N/C(=O)c2ccco2)sc2cccc(F)c21` [MLS000101506] had an IC50 of more than 10000 µM.
The compound `CC1Cc2nc(SCC(=O)Nc3ccc4c(c3)OCO4)n(CCc3ccccc3)c(=O)c2S1` (centres undefined) [MLS000101671] gave a half-inhibitory concentration (IC50) of more than 10000 µM.
On to `CCc1ccc(NC(=O)c2cnc3scc(C)n3c2=O)cc1` [MLS000102000], for which the IC50 is more than 10000 µM.
In turn, `Cc1csc2ncc(C(=O)Nc3ccccc3Cl)c(=O)n12` [MLS000102002] returned an IC50 under setting [1] of 47.4 µM.
`Cc1cccc(C(=O)Nc2cc(=O)n(C)c(=O)n2C)c1` [MLS000103605] had an IC50 of more than 10000 µM.
For `Cc1ccc(-c2cc(C(F)(F)F)n3ncc(C(=O)NCc4ccco4)c3n2)cc1` [MLS000109298], 59.2 µM corresponded to half-maximal inhibition under setting [1] (IC50).
Compound `O=C(c1cc2nc(-c3ccc(F)cc3)cc(C(F)(F)F)n2n1)N1CCCC1` [MLS000109312] registered an IC50 of 53 µM. That is a double-digit micromolar value.
The same measure, in the same setting: with `CCC(=O)Nc1nnc(Sc2ccc(N(C)C)cc2)s1` [MLS000109846] the figure was more than 10000 µM; with `Sc1nnc(-c2ccccc2)n1C1C=CCCC1` (centres undefined) [MLS000111390], more than 10000 µM.
`COC(=O)Cc1sc(=O)[nH]c1Nc1ccccc1` [MLS000111966] returned an IC50 of more than 10000 µM.
On to `CC1CC(C)CN(CCCNC(=O)Cn2ncc3c(=O)oc4ccccc4c32)C1` (centres undefined) [MLS000116997], for which the 50% inhibitory concentration (IC50) was more than 10000 µM.
Same read-out and setting: with `CCOc1ccc(N(CC(=O)NC2CCCC(C)C2C)S(=O)(=O)c2c(C)noc2C)cc1` (centres undefined) [MLS000117395] the figure was more than 10000 µM; with `CCOc1ccc(N(CC(=O)Nc2ccc(F)c(F)c2)S(=O)(=O)c2c(C)noc2C)cc1` [MLS000117397], more than 10000 µM; with `CCN(CCNC(=O)C1CCN(c2nnc(-n3cccc3)s2)CC1)c1ccccc1` [MLS000119699], more than 10000 µM.
`CCCCNC(=O)c1ccc2nc(-c3ccco3)c(-c3ccco3)nc2c1` [MLS000119995] gave an IC50 under setting [1] of 75.6 µM.
With `CCOc1cc2[nH]c(=O)n(Cc3ccc(C(=O)NCCOC)cc3)c(=O)c2cc1OCC` [MLS000120003], half-maximal inhibition (IC50) required 183 µM.
`CN(C)S(=O)(=O)c1cccc(C(=O)C2=C3SC=C(c4ccccc4)N3CC2)c1` [N,N-dimethyl-3-[(3-phenyl-5,6-dihydropyrrolo[2,1-b][1,3]thiazol-7-yl)carbonyl]benzenesulfonamide] displayed an IC50 of more than 10000 µM.
With `COCCN(Cc1cc2cc3c(cc2[nH]c1=O)OCO3)C(=O)c1cccs1` [N-(2-methoxyethyl)-N-[(6-oxidanylidene-5H-[1,3]dioxolo[4,5-g]quinolin-7-yl)methyl]thiophene-2-carboxamide], the IC50 stood at 37.6 µM.
`COc1ccccc1NC(=O)CSc1nc(O)cc(=O)n1-c1ccccc1OC` [N-(2-methoxyphenyl)-2-[1-(2-methoxyphenyl)-6-oxidanyl-4-oxidanylidene-pyrimidin-2-yl]sulfanyl-ethanamide] displayed a half-inhibitory concentration (IC50) of more than 10000 µM.
The compound `Cc1cccc2cc(CN(Cc3ccco3)S(=O)(=O)c3ccc4c(c3)OCCO4)c(=O)[nH]c12` [N-(furan-2-ylmethyl)-N-[(8-methyl-2-oxidanylidene-1H-quinolin-3-yl)methyl]-2,3-dihydro-1,4-benzodioxine-6-sulfonamide] had a concentration for half-maximal inhibition (IC50) of more than 10000 µM.
Compound `CCN(CC)CCCN(Cc1cc2cc3c(cc2nc1O)OCCO3)C(=O)Nc1ccccc1` [SMR000004152] showed an IC50 of more than 10000 µM.
Regarding `Nc1cc(N)cc(-c2nc3ccccc3[nH]2)c1` [SMR000008815], half-maximal inhibition (IC50) was put at 79.1 µM.
`COc1ccc(-c2nc(C(N)=O)c3[nH]c(=O)n(-c4cccc(C)c4)c3n2)c(OC)c1` [SMR000016861] yielded an IC50 of 128 µM. This IC50 is about 1.6-fold higher than that of the compound before.
`CCOC(=O)c1sc(Nc2nc3c(OC)cccc3s2)nc1C` [SMR000027213]: the IC50 is 2.35 µM. Against the preceding compound, the IC50 is about 54-fold lower.
Compound `O=c1c2cc(N3CCOCC3)ccc2[nH]c(=S)n1CCCN1CCN(c2ccccc2F)CC1` [SMR000030978] registered an IC50 of 58.7 µM. Against the preceding compound, the IC50 is about 25-fold higher.
On the same count and under the same terms, with `Cc1ccc(C2C3CN(C(C)C)CCC3=C(C#N)C(=N)C2(C#N)C#N)cc1` (centres undefined) [SMR000034220] the figure was 39.6 µM.
As to `Cc1nc(-c2cnn(-c3ccccc3)c2)c2cc(C)oc2n1` [SMR000046165], the IC50 is more than 10000 µM.
As to `N#Cc1c(S)nc2c(c1-c1cccnc1)CCCC2` [SMR000104204], half-maximal inhibition (IC50) required 20.1 µM.
Still for that read-out and setting: with `CCOC(=O)C1=C(C)N=C(C)C(C(=O)OCC)C1c1cc2ccc(C)cc2[nH]c1=O` (centres undefined) [diethyl 2,6-dimethyl-4-(7-methyl-2-oxidanylidene-1H-quinolin-3-yl)-1,4-dihydropyridine-3,5-dicarboxylate] the figure was 150 µM.
